# Where no end group is shown, it is not given here.
# Assays:
# chymotrypsin = settings: Pep5 variant; cited from earlier work
# at least some strains = settings: when used with at least some strains; cited from earlier work
# [1] = tested on: bacterial contamination and MAP in processed fecal field samples (Annabelle, Heidi, Meck 42); assay: MGIT 960 liquid culture of processed fecal field samples, time to positive / contamination; type: cell-based, Mycobacterium avium subsp. paratuberculosis; settings: for TTP (days): 50000 ug nisin per tube, 1 tube only
# Description: (§1) Middlebrook 7H9 broth was prepared by suspending 4.7 grams Middlebrook 7H9 dehydrated base (BD Diagnostics, Sparks, Md.) in 900 ml of double distilled water. The solution was autoclaved for 20 minutes at 121° C., and stored in a refrigerator when not in use. A 50% egg yolk suspension was stored in a refrigerator. Nisin was prepared in 1–2 M hydrochloride acid (HCl) at a concentration of 100 mg/ml. ANV cocktail (5 mg/ml) was prepared from the individual antibiotics and stored frozen.
# Vials of processed fecal field samples, Annabelle, Heide and Meck 42, stored at −70° C., were thawed in a 37° C. incubator. The samples had been previously processed according to the Cornell modified decontamination and inoculation method as described in Whitlock et al., supra (2000).
# (§2) Cultures were set up in MGIT™ tubes (BD Diagnostics, Sparks, Md.). MGIT™ tubes contain an oxygen-sensitive fluorescent compound, tris 4,7-diphenyl-1,10-phenanthroline ruthenium chloride pentahydrate, in silicone base that detects growth by increased fluorescence as oxygen consumption in the culture increases. The tubes were barcoded for scanning in a BACTEC™ MGIT™ 960 machine (BD Diagnostics, Sparks, Md.).
# (§3) Vials of nisin and ANV, stored in a standard freezer, were thawed in a 37° C. incubator. Egg yolk, OADC or OACC (BD Diagnostics, Sparks, Md.) and 7H9, stored in a standard refrigerator, were warmed in a 37° C. incubator. Using sterile pipet tips (autoclaved), components were aliquoted into barcoded MGIT™ culture tubes as follows: OADC or OACC (800 μl); 50% egg yolk suspension (600 μl except for […] control tubes having 60 μl. The volume difference in volume made up by 7H9); 7H9; 5 mg/ml ANV (30 μl); 100 mg/ml nisin (quantity determined by desired final concentration); and organism sample (100 μl). 7H9 was added at the quantity needed to bring the final volume of each tube to 8.9 ml, so that the tubes had identical head space. After all components were added, tubes were tightly capped and inverted three times. The tubes were placed in the MGIT™ 960 machine and scanned in after they registered as unknown at the next hourly reading.
# (§4) The experiment was designed to test a MAP isolate (ATCC# 700535) at three different concentrations (MAP 10^−3, MAP 10^−4 and MAP 10^−5). Three field samples (processed fecal matter) named Annabelle, Heidi and Meck 42 were also tested in the experiment. Seven conditions were tested for effectiveness against bacterial contamination in mycobacterial cultures: ANV alone, five different nisin concentrations and HCl, the diluent for nisin. Generally, each sample was tested in triplicate for each solution. There were eleven additional control tubes; two tubes for additives (5 μl nisin and 30 μl ANV) and 9 tubes for weekly performance (no ANV and 60 μl 50% egg yolk suspension; WP). The WP tubes were used to monitor test performance and reproducibility over time.
# Acid Fast bacillus = assay: Acid fast smears (Ziehl-Neelson) of culture tubes; type: cell-based, Mycobacterium avium subsp. paratuberculosis; settings: for Acid Fast Results or CFUs: per replicate tube
# Description: One of the most distinctive properties of Mycobacteria is the impermeability of their lipid-rich cell walls to various basic dyes, unless the dye is combined with phenol. Once stained, the cells resist decolorization with acidified organic solvents, and are, therefore called “acid fast.” Acid fast staining methods include, but are not limited to, Ziehl-Neelsen (ZN) carbolfuchsin staining, fluorochrome staining (auromine O and rhodamine B) and Kinyoun carbolfuchsin staining.
# MAP ATCC# 700535 = assay: MGIT 960 liquid culture of MAP isolate dilutions, time to positive; type: cell-based, Mycobacterium avium subsp. paratuberculosis; settings: for TTP (days): 600 ul EY
# Description: as §1
# Dilutions of MAP ATCC# 700535 were prepared as follows. A working stock vial, at 10^−2, stored at −70° C. freezer, was thawed in a 37° C. incubator. Using individually-wrapped, sterile glass pipettes, a serial dilution series was made in sterile 15 ml conical tubes. One (1) ml of MAP at 10^−2 was diluted into 9 ml of 7H9 medium and mixed well to yield a 10^−3 solution. One ml of this solution was diluted into another tube of 9 ml 7H9 to yield a 10^−4 solution. This process was repeated again to produce a 10^−5 solution. The serial dilutions were plated on HEYM flasks, 100 ul dilution per flask, and placed in an incubator.
# as §2, §3, §4
# [2] = Meck and Annabelle samples, tubes 4F and 7F (10000 ug nisin)
substance,measurement,setting,value
"A19C Pep5: Pep5 variant from the literature (TAGPAIRASVKQCQKTLKCTRLFTVSCKGKNGCK; also: lantibiotic Pep5: thioether rings and dehydro residues not placed; UniProt P19578 27-60, looked up, variant A19C)",stability to chymotrypsin,chymotrypsin,more stable to chymotrypsin
"L6V gallidermin: gallidermin variant from the literature (IASKFVCTPGCAKTGSFNSYCC; cysteine pairing not given here; also: lantibiotic lanthionine modifications not placed; UniProt P21838 31-52, looked up, variant L6V)",antibacterial activity,at least some strains,enhanced antibacterial activity
"nisin (ITSISLCTPGCKTGALMGCNMKTATCHCSIHVSK; cysteine pairing not given here; also: lantibiotic lanthionine modifications not placed; UniProt P13068 24-57, looked up) [34 amino acid pentacyclic class A lantibiotic peptide produced by Lactococcus lactis; stock 100 mg/ml in HCl]",time to recover TNTC animals,"[1]; 600 ul 50% egg yolk suspension, nisin approximately 5000 to 10,000 ug per tube",< 15 days
same,TTP (days),[1]; Annabelle field sample,43.7 (1 tube only) days
same,TTP (days),[1]; Heidi field sample,No gu's (1 tube only)
same,TTP (days),[1]; Meck 42 field sample,54.4 (1 tube only) days
same,time at which tubes flagged positive,[1]; [2],14 to 17 days
same,control of non-mycobacterial contamination and MAP growth,"[1]; field samples, particularly at 10,000 ug nisin",controlled non-mycobacterial contamination with little retardation of MAP growth
same,Acid Fast Results or CFUs,"Acid Fast bacillus; Annabelle field sample, 10000 ug nisin per tube",4+Pos–4+Pos–ND
same,Acid Fast Results or CFUs,"Acid Fast bacillus; Heidi field sample, 500 ug nisin per tube",4+Pos–4+Pos–ND
same,Acid Fast Results or CFUs,"Acid Fast bacillus; Heidi field sample, 1000 ug nisin per tube",4+Pos–4+Pos–ND
same,Acid Fast Results or CFUs,"Acid Fast bacillus; Heidi field sample, 5000 ug nisin per tube",4+Pos–3+Pos–ND
same,Acid Fast Results or CFUs,"Acid Fast bacillus; Heidi field sample, 10000 ug nisin per tube",4+Pos–ND–ND
same,Acid Fast Results or CFUs,"Acid Fast bacillus; MAP 10^−3, 10000 ug nisin per tube",4+Pos–4+Pos–ND
same,Acid Fast Results or CFUs,"Acid Fast bacillus; Meck 42 field sample, 1000 ug nisin per tube",ND–ND–4+Pos
same,Acid Fast Results or CFUs,"Acid Fast bacillus; Meck 42 field sample, 5000 ug nisin per tube",BC–4+Pos–4+Pos
same,Acid Fast Results or CFUs,"Acid Fast bacillus; Meck 42 field sample, 10000 ug nisin per tube",ND–4+Pos–4+Pos
same,AFB (acid-fast bacilli smears),Acid Fast bacillus; [2],4+Positive
same,TTP (days),"MAP ATCC# 700535; MAP 10^−4, 500 ug nisin per tube, three replicate tubes",19.3–20.6–No gu's
same,TTP (days),"MAP ATCC# 700535; MAP 10^−4, 50000 ug nisin per tube",No gu's
same,TTP (days),"MAP ATCC# 700535; MAP 10^−5, 5000 ug nisin per tube, three replicate tubes",32.4–38.7–2 gu's
same,reduction of TTP compared to 30 ul ANV,"MAP ATCC# 700535; nisin at 10,000 ug/tube, tubes 3A and 3F (MAP 10^−5)",approximately 30%
same,inhibitory effect on MAP growth,MAP ATCC# 700535; nisin with 600 ul EY,little inhibitory effect on MAP growth

# Source: patent US7101701B2, “Method to reduce contamination when culturing mycobacteria” (The Trustees of the University of Pennsylvania, priority 2004, dated 2006)
